The source of these data is patent US11986450B2, “Methods and compositions for treating infection and inflammation with selenocyanate” (National Jewish Health, priority 2017, dated 2024).

For data set [1], the system named is P. aeruginosa: PAO1. The experiment in a line: Viability after HOSCN exposure.
For a further data set, the system named is B. cenocepacia. The experiment in a line: Bacterial sensitivity towards HOSCN killing. The data set is classed as cell-based, Burkholderia cepacia complex (BCC). The following applies: CF sputum isolate, HOSCN flux for 2 hours, GOX/LPO/SCN system, pH 7.4. As to the method: (§1) FIGS. 11A-11D. […] A lactoperoxidase (LPO) system was used to generate increasing fluxes of either HOSCN or HOSeCN in presence of 400 μM of either ^−SCN or ^−SeCN. LPO in the presence of a hydrogen peroxide generating system (glucose oxidase, GOX) can convert both thiocyanate and selenocyante to their respective hypopseudohalous acid species (HOSCN and HOSeCN) that are biocides. […] Bacterial inoculums (10^6 colony forming units, CFU) were incubated with host defense system for 2 hours at room temperature and bacteria were plated on LB agar plates and cell viability was determined by dilution and counting CFUs.
(§2) LPO in the presence of a hydrogen peroxide generating system (glucose oxidase, GOX) can convert both thiocyanate and selenocyante to their respective hypopseudohalous acid species (HOSCN and HOSeCN) that are biocides. […] Bacterial inoculums (10^6 colony forming units, CFU) were incubated with host defense system for 2 hours at room temperature and bacteria were plated on LB agar plates and cell viability was determined by dilution and counting CFUs. Lethal concentrations that kill 50% of bacteria (LC50) were determined by non-linear curve fitting the data.
(§3) Bacteria were incubated for 2 hour with LPO, ^−SCN or SeCN, glucose and increasing amounts of GOX. The flux (HOX) of either HOSCN or HOSeCN was determined from standard curves of GOX/LPO and either HOSCN or HOSeCN. LC50 values were determined by curve fitting the data with nonlinear regression of log (agonist) vs normalized response.

The next data set has as its system B. multivorans 41. The experiment in a line: Bacterial sensitivity towards HOSCN killing. Particulars: B. multivorans 41, CF sputum isolate; HOSCN flux for 2 hours, GOX/LPO/SCN system, pH 7.4. The data set is classed as cell-based, Burkholderia cepacia complex (BCC). The protocol: as §1, §2, §3
For a further data set, the system named is B. dolsa. The experiment in a line: Bacterial sensitivity towards HOSCN killing. The data set is classed as cell-based, Burkholderia cepacia complex (BCC). Particulars: CF sputum isolate, HOSCN flux for 2 hours, GOX/LPO/SCN system, pH 7.4. As to the method: as §1, §2, §3
Another data set has as its system B. vietnameisis. The experiment in a line: Bacterial sensitivity towards HOSCN killing. The format is cell-based, Burkholderia cepacia complex (BCC). The following applies: HOSCN flux for 2 hours, GOX/LPO/SCN system, pH 7.4. As to the method: as §1, §2, §3
A further data set deals with P. aeruginosa: AMT0145L. The experiment in a line: HOSCN reductase activity.
A further data set relates to P. aeruginosa: AMT0009L. The experiment in a line: Viability after HOSCN exposure. The following applies: late disease antibiotic-resistant CF isolate.
Data set [2] deals with P. aeruginosa: AMT0105L. The experiment in a line: Viability after HOSCN exposure. The following applies: late disease antibiotic-resistant CF isolate.
Data set [3] addresses purified E. coli Cys-TrxR (Escherichia coli, UniProt P0A9P4). The experiment in a line: Sulfenic acid (dimedone label) formation, western blot. The format is biochemical. The following applies: 5 minutes exposure; reversible by NAC. The protocol:
FIG. 15. Western blot of sulfenic acid (dimedione label) formation on purified E. coli Cys-TrxR after 5 minutes HOSCN exposure (molar ratios label each lane) or plus 1 minute PBS or N-acetylcysteine (NAC). For lane 8, H2O2 was used instead of HOSCN.
HOSCN is an interesting oxidant due to its affinity for only very acidic thiol groups on proteins (Barrett, T. J., et al. (2012) Inactivation of thiol-dependent enzymes by hypothiocyanous acid: role of sulfenyl thiocyanate and sulfenic acid intermediates. Free Radic Biol Med 52, 1075-1085). This property of HOSCN allows it to diffuse much easier to distant targets. Cys-TrxR has two cysteine residues in its active site that are acidic and it is expected that HOSCN oxidizes them as part of its mechanism of inactivation. Data has shown that dimedone labels sulfenic acid residues in E. coli Cys-TrxR upon selective thiol oxidation by HOSCN (FIG. 15). […] This probe can be used in tandem with western blotting and LC-MS approaches to characterize thiol oxidation of bacterial Cys-TrxRs. Although previous studies have looked at potential bacteria targets for oxidative inactivation by oxidants produced by haloperoxidases, Cys-TrxR was not previously identified (Tenovuo, J., and Pruitt, K. M. (1984) Relationship of the human salivary peroxidase system to oral health. J Oral Pathol 13, 573-584).

The nature of data set [4]: Viability after HOSCN exposure. The following applies: human, human bronchial epithelial (16HBE) cells.
Data set [5] relates to E. coli: AB1157. The experiment in a line: HOSCN reductase activity.
Data set [6] relates to P. aeruginosa: PAO1. The experiment in a line: HOSCN reductase activity.
For another data set, the system named is P. aeruginosa: AMT0294L. The experiment in a line: Viability after HOSCN exposure. The following applies: late disease antibiotic-resistant CF isolate.
Data set [7] concerns Human bronchial epithelial (16HBE) cells. The experiment in a line: HOSCN reductase activity. Particulars: human 16HBE cells.
The subject of a further data set is P. aeruginosa: AMT0058L. The experiment in a line: Viability after HOSCN exposure. Particulars: late disease antibiotic-resistant CF isolate.
Data set [8] concerns Sec-TrxR activity in J774 cells. The experiment in a line: Sec-TrxR activity induction in J774 cells. The data set is classed as cell-based. Particulars: 2 hours exposure, lysates measured 24 hours later. As to the method: FIG. 17. […] Cells were exposed to increasing concentrations of HOSCN, hydrogen peroxide or 100 ng/ml PA LPS for 2 hours and then cell lysates where measured 24 hours later for Sec-TrxR activity.
The role of extracellular SCN in modulating neutrophil responses to infectious stimuli, and to test how this impacts their ability to kill or suppress bacterial growth and attenuate pro-inflammatory environments is determined as provided for in Example 3 herein. De-identified human blood neutrophils from normal and CF subjects are used. Readouts include changes in bacterial growth rates, phagocytosis, and cytokine release over time correlated to changes in intracellular ^−SCN and Sec-TrxR levels. Additionally, how extracellular thiol levels modulate leukocyte function by changing intracellular thiol status and its known effects on dampening NFkB cell signaling pathways based on previous work with GSH (Gould, N. S., et al. (2011) Macropinocytosis of extracellular glutathione ameliorates tumor necrosis factor alpha release in activated macrophages. PLoS One 6, e25704) is disclosed. […] Since HOSCN is an oxidant and capable of redox signaling, examination of whether it can regulate its own metabolism by inducing Sec-TrxR expression is done.

In data set [9] the test system is P. aeruginosa: AMT0105L. The experiment in a line: HOSCN reductase activity.
The test system of data set [10] is E. coli: AB1157. The experiment in a line: Viability after HOSCN exposure.

Sequence of purified E. coli Cys-TrxR (P0A9P4 whole entry): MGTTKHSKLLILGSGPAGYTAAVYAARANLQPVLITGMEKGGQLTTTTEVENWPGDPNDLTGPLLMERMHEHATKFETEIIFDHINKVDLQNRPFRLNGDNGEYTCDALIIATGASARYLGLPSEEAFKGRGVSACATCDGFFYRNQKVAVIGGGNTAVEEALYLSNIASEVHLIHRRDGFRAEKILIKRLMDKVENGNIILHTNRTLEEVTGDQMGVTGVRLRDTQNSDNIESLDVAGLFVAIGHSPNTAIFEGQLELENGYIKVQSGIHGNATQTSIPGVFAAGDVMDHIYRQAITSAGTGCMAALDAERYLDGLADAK

On to `N#CSO` [HOSCN, hypothiocyanite], for which the “Viability (%)” value is given as 0% with P. aeruginosa: PAO1 [1]; 4.2 ± 2.1% in the data set with P. aeruginosa: AMT0009L; 0% in the data set with P. aeruginosa: AMT0105L [2]; 0% in the data set with P. aeruginosa: AMT0294L; 0.7 ± 0.4% with P. aeruginosa: AMT0058L; 0% in the data set with E. coli: AB1157 [10]. The “HOSCN IC50” value in the data set with B. cenocepacia amounted to 59 µM/h; with B. multivorans 41 it was 18 µM/h; with B. dolsa, 79 µM/h; with B. vietnameisis it was 64 µM/h. Also, the “Apparent Vmax (HOSCN reductase activity)” value with P. aeruginosa: AMT0145L is 1.4 ± 0.1 nmol/mg/min; with E. coli: AB1157 [5] it was “ND^c (No activity detected. Limit of detection = 0.5 nmol mg^−1 min^−1)”; with P. aeruginosa: PAO1 [6] it was “ND^c (No activity detected. Limit of detection = 0.5 nmol mg^−1 min^−1)”; in [7] it was 14.7 ± 1.0 nmol/mg/min; in the data set on P. aeruginosa: AMT0105L [9], “ND^c (No activity detected. Limit of detection = 0.5 nmol mg^−1 min^−1)”. Further, in [3], the “Oxidation of Cys-TrxR” value was “rapidly oxidized”. In addition, the viability (as a rule, a read-out of living cells in per cent, often relative to untreated cells) in data set [4] was found to be 96.3 ± 1.6%. For the same compound, in data set [8], the Sec-TrxR activity entry is “induces Sec-TrxR activity”.
